Assay results as given in article PMC5321434, “Dihydrobenz[e][1,4]oxazepin-2(3H)-ones, a new anthelmintic chemotype immobilising whipworm and reducing infectivity in vivo” (PLoS Neglected Tropical Diseases, 2017).
pEC50: −log10 of the molar value. Like-named read-outs stand apart in the source and are kept apart here.

How the values were obtained:
adult T. muris = assay: Ex vivo adult T. muris automated motility assay (primary/secondary screen at 100 μM and dose-response); parameters: species or system Trichuris muris; conditions: for COMBINED_SCREEN_ACTIVITY: combined primary and secondary screen minus log fold change in movement, adult T. muris; for COMBINED_SCREEN_ACTIVITY / PRIMARY_SCREEN_MINUS_LOG_FOLD_CHANGE_MOVEMENT / SECONDARY_SCREEN_MINUS_LOG_FOLD_CHANGE_MOVEMENT: 100 μM; for PRIMARY_SCREEN_MINUS_LOG_FOLD_CHANGE_MOVEMENT: primary screen; for PRIMARY_SCREEN_MINUS_LOG_FOLD_CHANGE_MOVEMENT / SECONDARY_SCREEN_MINUS_LOG_FOLD_CHANGE_MOVEMENT: adult T. muris motility; for SECONDARY_SCREEN_MINUS_LOG_FOLD_CHANGE_MOVEMENT: secondary screen
Outline: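 Adult worms recovered from SCID mice at day 35 post-infection (200 eggs orally), one per well, in RPMI-1640 with penicillin/streptomycin and 1% DMSO. Compound at 100 μM final in primary screen, 24 h at 37 °C, 5% CO2; motility from pixel-variance imaging, dose-response by four-parameter log-logistic fit.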

[1] = tested on: CMT-93 murine rectal epithelial cells; assay: WST-8 cytotoxicity assay; type: cell-based, mouse; conditions: CMT-93 cells, 72 hours, maximum tested concentration 100μM, n = 8, 95% confidence interval in parentheses
Method: (§1) CMT-93 murine rectal epithelial cells were maintained in Dulbecco's Modified Eagle's Medium (DMEM) with 10% fetal calf serum (FCS) and 1% penicillin-streptomycin solution (10,000U/ml). Cells were plated in 96-well tissue culture plates at a density of 2x10^2 cells per well in a volume of 100μl, and cultured for 96 hours (37°C, 5% CO2) until reaching 30% confluence. The growth medium was removed and replaced with treatment media (DMEM, 1% FCS, 1% penicillin-streptomycin solution, 100μl assay volume) supplemented with vehicle alone (DMSO), test compounds or chlorpromazine, a positive control for cytotoxicity (final concentrations from 0 to 100μM). Maximum vehicle concentration for all compounds was 0.5% DMSO. Cells were cultured with the test compounds for 72 hours before cytotoxicity measurement. The WST-8 assay was performed using the Cell Counting Kit– 8 (Sigma Aldrich # 96992). 10μl of the CCK-8 solution was added to each well, plates were incubated for a further 2 hours, before absorbance was measured at 450nm using a microplate reader. This assay measures the ability of metabolically active cells to reduce a water-soluble formazan dye. Results were analysed using GraphPad Prism and fitted using a log-logistic model.

[2] = tested on: embryonated T. muris eggs; assay: In vivo establishment of infection by compound-treated embryonated eggs; parameters: species or system Trichuris muris; conditions: eggs soaked 14 days at 100μM; for Reduction of infectivity in vivo of treated embryonated eggs: washed, 30 eggs by oral gavage to mice, worms counted day 15, versus DMSO control
Method: 100 infective embryonated eggs were incubated with water, water plus DMSO vehicle, or test compounds at a final concentration of 100μM for 14 days at room temperature. Eggs were then washed, re-suspended in water and 30 eggs given to a mouse via oral gavage. At day 15 post-infection, mice were culled and the number of worms present in the caecae and colon was counted. One data point was excluded: a water control individual mouse where there were technical difficulties with the oral gavage leading to the mouse regurgitating some of the T. muris eggs. It was ear marked at day of gavage and removed from the analysis.
We collected data using the same experimental design on different occasions, these are referred to as batches. Data were obtained from three batches (DMSO and water controls, batches [A,B,C]) or two batches (OX02983 [A,C], OX03153 [B,C]) with the total number of mice used, n, as follows: DMSO: 14, water: 16, OX02983: 10, OX03153: 12. The data were analysed by 2-way ANOVA (worms ~ treatment + batch + treatment * batch). There was no significant interaction effect (P = 0.14) or effect of batch (P = 0.47). We therefore combined the data from the three batches. […] We then conducted a post-hoc test using Tukey’s honest significant difference test.

[3] = tested on: CMT-93 murine rectal epithelial cells; assay: Neutral red cytotoxicity assay; type: cell-based, mouse; conditions: CMT-93 cells, 72 hours, maximum tested concentration 100μM, n = 8, 95% confidence interval in parentheses
Method: (§2) CMT-93 murine rectal epithelial cells were maintained in Dulbecco's Modified Eagle's Medium (DMEM) with 10% fetal calf serum (FCS) and 1% penicillin-streptomycin solution (10,000U/ml). Cells were plated in 96-well tissue culture plates at a density of 2x10^2 cells per well in a volume of 100μl, and cultured for 96 hours (37°C, 5% CO2) until reaching 30% confluence. The growth medium was removed and replaced with treatment media (DMEM, 1% FCS, 1% penicillin-streptomycin solution, 100μl assay volume) supplemented with vehicle alone (DMSO), test compounds or chlorpromazine, a positive control for cytotoxicity (final concentrations from 0 to 100μM). Maximum vehicle concentration for all compounds was 0.5% DMSO. Cells were cultured with the test compounds for 72 hours before cytotoxicity measurement. Following the WST-8 assay, the medium was removed, cells were washed with 100μl PBS and then 100μl of neutral red medium (DMEM, 1% FBS and 33μg/ml neutral red dye (Sigma Aldrich #N2889) were added to each well, followed by incubation for a further 2 hours. The neutral red medium was removed, cells washed with 100μl of PBS and 100μl of destain solution (50% ethanol, 49% distilled water and 1% glacial acetic acid) were added. Each assay plate was shaken rapidly for 10 minutes before absorbance was measured at 540nm using a microplate reader. This assay measures the ability of living cells to actively take up the neutral red dye. Results were analysed using GraphPad Prism and fitted using a log-logistic model.

T. trichiura = conditions: cited from earlier work
T. muris = conditions: associated with cuticular damage; cited from earlier work
WST-8 cytotoxicity assay = type: cell-based, mouse; conditions: mouse, CMT-93 rectal epithelial cells; resynthesised compound, WST-8 cytotoxicity; read-out: ResynCytotoxityWST-8(EC50uM)
Method: as §1

[4] = Neutral red cytotoxicity assay; type: cell-based, mouse; conditions: mouse, CMT-93 rectal epithelial cells; resynthesised compound, neutral red cytotoxicity; read-out: ResynCytotoxicityNeutralRed(EC50uM)
Method: as §2

[5] = Trichuris muris, values of Fig 5 shown for comparison, read-out: EC50 in adult Trichuris paralysis assay
[6] = Trichuris muris, resynthesised compound, adult T. muris paralysis, read-out: ResynActivityTmurisAdultParalysis(EC50uM)

Row | Compound | COMBINED_SCREEN_ACTIVITY (adult T. muris) | PRIMARY_SCREEN_MINUS_LOG_FOLD_CHANGE_MOVEMENT (adult T. muris) | also measured
1 | 1-(4-Methylbenzyl)-7-(pyridin-4-yl)-1,5-dihydrobenzo[e][1,4]oxazepin-2(3H)-one [OX03153] |  |  | pEC50 (adult T. muris; values of Fig 5 shown for comparison, read-out: EC50 in adult Trichuris paralysis assay): 4.24; pEC50 [1]: < 4.00; Reduction of infectivity in vivo of treated embryonated eggs [2]: not active; pEC50 [3]: < 4.00
2 | c1ccc([C@H]2CN3CCSC3=N2)cc1 [Levamisole, reference compound] |  |  | pEC50 (adult T. muris; Trichuris muris, single adult worms, 24 hours incubation, automated motility assay, EC50 ± standard error, n = 5 (OX03144 n = 10), read-out: EC50, attenuation of ex vivo T. muris adult motility): 5.10; Single-dose cure rate, trichiuriasis (T. trichiura; single dose, no reference given): 9%
3 | O=C1COCc2cc(-c3cccnc3)ccc2N1CC1CCCCC1 [OX02993, 1-(Cyclohexylmethyl)-7-(pyridin-3-yl)-1,5-dihydrobenzo[e][1,4]oxazepin-2(3H)-one] |  |  | pEC50 (adult T. muris; [5]): 4.28; pEC50 ([1]; Mus musculus, CMT93): < 4.00; pEC50 ([3]; Mus musculus, CMT93): < 4.00
4 | O=c1cc(-c2ccc(O)c(O)c2)oc2cc(O)cc(O)c12 [luteolin] |  |  | Activity against T. muris (T. muris): activity against T. muris
5 | C/C=C/c1cc(OC)c2c(c1)OCO2 [isomyristicin] |  |  | Activity against T. muris (T. muris): activity against T. muris
6 | CN1CCCN=C1/C=C/c1cccc(O)c1.O=C(O)c1cc2ccccc2c(Cc2c(O)c(C(=O)O)cc3ccccc23)c1O [oxantel pamoate] |  |  | Single-dose cure rate, T. trichiura (T. trichiura; children, optimal dose, dose-ranging study): 60%
7 | CN(C)CCCN1c2ccccc2Sc2ccc(Cl)cc21 [Chlorpromazine, reference compound] |  |  | pEC50 ([1]; Mus musculus, CMT93): 5.05; pEC50 ([3]; Mus musculus, CMT93): 5.00
8 | Cc1ccc(CN2C(=O)COCc3cc(Br)ccc32)cc1 [Compound 4] | 11.5841 | 10.5493 | pEC50 (adult T. muris; [6]): 4.46; SECONDARY_SCREEN_MINUS_LOG_FOLD_CHANGE_MOVEMENT (adult T. muris): 12.6188; EC50 at 72 h (WST-8 cytotoxicity assay): 63 µM; EC50 at 72 h [4]: 47 µM
9 | Cc1ccc(CN2C(=O)COCc3cc(Br)ccc32)cc1 [OX03146, 7-Bromo-1-(4-methylbenzyl)-1,5-dihydrobenzo[e][1,4]oxazepin-2(3H)-one] |  |  | pEC50 (adult T. muris; [5]): 4.46; pEC50 ([1]; Mus musculus, CMT93): 4.20; pEC50 ([3]; Mus musculus, CMT93): 4.33
10 | Cc1ccc(CN2C(=O)COCc3cc(-c4cccc(C#N)c4)ccc32)cc1 [Compound 115] | -2.656 | -2.656 | 
11 | O=C1COCc2ccc(-c3cccc(F)c3)cc2N1CCN1CCOCC1 [Compound 116] | 0.5451 | 0.5451 | 
12 | O=C1COCc2cc(-c3cccnc3)ccc2N1Cc1ccc(C(F)(F)F)cc1 [OX03144, 7-(Pyridin-3-yl)-1-(4-(trifluoromethyl)benzyl)-1,5-dihydrobenzo[e][1,4]oxazepin-2(3H)-one] |  |  | pEC50 (adult T. muris; [5]): 4.59; pEC50 ([1]; Mus musculus, CMT93): < 4.00; pEC50 ([3]; Mus musculus, CMT93): 4.22
13 | COc1cccc(CN2C(=O)COCc3cc(-c4ccc(OC)nc4)ccc32)c1 [Compound 143] | -1.1304 | -1.1304 | 
14 | COc1ccc(CN2C(=O)COCc3ccccc32)cc1 [Compound 14] | -1.77 | -1.77 | 
15 | O=C1COCc2cc(-c3cccnc3)ccc2N1CC1CCCCC1 [Compound 2] | 11.5091 | 10.3993 | pEC50 (adult T. muris; [6]): 4.28; SECONDARY_SCREEN_MINUS_LOG_FOLD_CHANGE_MOVEMENT (adult T. muris): 12.6188; EC50 at 72 h (WST-8 cytotoxicity assay): > 100 µM; EC50 at 72 h [4]: > 100 µM
16 | CN1C(=O)COCc2c(-c3cccc(CO)c3)cccc21 [Compound 15] | -0.7825 | -0.7825 | 
17 | CC(C)N1C(=O)COCc2ccc(-c3cccc(F)c3)cc21 [Compound 29] | 1.463 | 1.463 | 
18 | Cc1ccc(CN2C(=O)COCc3ccccc32)cc1 [Compound 7] | -0.007203 | -0.007203 | 
19 | COc1cc(F)ccc1-c1ccc2c(c1)COCC(=O)N2CCN1CCOCC1 [Compound 161] | -1.617 | -1.617 | 
20 | COc1cc(F)ccc1-c1ccc2c(c1)N(CCc1ccccc1)C(=O)COC2 [Compound 146] | -0.8154 | -0.8154 | 
21 | O=C1COCc2cc(-c3cccc(O)c3)ccc2N1CCc1ccccc1 [Compound 97] | -0.7944 | -0.7944 | 
22 | O=C1COCc2cc(-c3cccnc3)ccc2N1Cc1ccc(C(F)(F)F)cc1 [Compound 3] | 11.4716 | 10.3243 | pEC50 (adult T. muris; [6]): 4.59; SECONDARY_SCREEN_MINUS_LOG_FOLD_CHANGE_MOVEMENT (adult T. muris): 12.6188; EC50 at 72 h (WST-8 cytotoxicity assay): > 100 µM; EC50 at 72 h [4]: 60 µM
23 | COc1cccc(CN2C(=O)COCc3cc(-c4cccc(CO)c4)ccc32)c1 [Compound 142] | -0.6408 | -0.6408 | 
24 | COc1cccc(CN2C(=O)COCc3cc(-c4ccccc4OC)ccc32)c1 [Compound 141] | -1.328 | -1.328 | 
25 | O=C1COCc2ccc(Br)cc2N1Cc1ccc(C(F)(F)F)cc1 [Compound 160] | 8.379 | 8.379 | 
26 | COCc1cccc(-c2ccc3c(c2)N(Cc2cccc(OC)c2)C(=O)COC3)c1 [Compound 172] | -0.3707 | -0.3707 | 
27 | COc1ccc(-c2ccc3c(c2)N(Cc2cc(F)cc(F)c2)C(=O)COC3)cn1 [Compound 156] | -1.039 | -1.039 | 
28 | Cc1ccc(CN2C(=O)COCc3cc(-c4ccncc4)ccc32)cc1 [OX02983, 1-(4-Methylbenzyl)-7-(pyridin-4-yl)-1,5-dihydrobenzo[e][1,4]oxazepin-2(3H)-one] |  |  | pEC50 (adult T. muris; [5]): 4.30; pEC50 ([1]; Mus musculus, CMT93): < 4.00; Median worms establishing infection ([2]; 30 eggs by oral gavage, day 15 post-infection): 5.5 worms; Reduction of infectivity in vivo of treated embryonated eggs [2]: ~54%; pEC50 ([3]; Mus musculus, CMT93): < 4.00
29 | COc1ccccc1-c1ccc2c(c1)COCC(=O)N2Cc1cc(F)cc(F)c1 [Compound 155] | -0.9332 | -0.9332 | 
30 | COc1c2ccoc2cc2oc(=O)ccc12 [bergapten] |  |  | Activity against T. muris (T. muris): activity against T. muris
